Source: US6673813B2, “Methods for identifying and treating resistant tumors” (priority 1994, dated 2004)
pKi: −log10 of the molar value. ≈ marks a conversion by molar mass, not a printed value. Read-outs that look alike come from different tables or passages of the source.

Columns and labels:
[1] = biological target: T1, MRP (Homo sapiens, UniProt P33527); experiment: ATP-dependent transport into membrane vesicles of MRP-overexpressing HL60/ADR cells; assay type: biochemical; design: HL60/ADR cells (human leukemia cells grown in adriamycin and overexpressing MRP); endogenous in cells; host or cells: HL60/ADR (Adriamycin-selected human HL60 leukemia cells), plasma membrane vesicles
T1 sequence (P33527 whole entry): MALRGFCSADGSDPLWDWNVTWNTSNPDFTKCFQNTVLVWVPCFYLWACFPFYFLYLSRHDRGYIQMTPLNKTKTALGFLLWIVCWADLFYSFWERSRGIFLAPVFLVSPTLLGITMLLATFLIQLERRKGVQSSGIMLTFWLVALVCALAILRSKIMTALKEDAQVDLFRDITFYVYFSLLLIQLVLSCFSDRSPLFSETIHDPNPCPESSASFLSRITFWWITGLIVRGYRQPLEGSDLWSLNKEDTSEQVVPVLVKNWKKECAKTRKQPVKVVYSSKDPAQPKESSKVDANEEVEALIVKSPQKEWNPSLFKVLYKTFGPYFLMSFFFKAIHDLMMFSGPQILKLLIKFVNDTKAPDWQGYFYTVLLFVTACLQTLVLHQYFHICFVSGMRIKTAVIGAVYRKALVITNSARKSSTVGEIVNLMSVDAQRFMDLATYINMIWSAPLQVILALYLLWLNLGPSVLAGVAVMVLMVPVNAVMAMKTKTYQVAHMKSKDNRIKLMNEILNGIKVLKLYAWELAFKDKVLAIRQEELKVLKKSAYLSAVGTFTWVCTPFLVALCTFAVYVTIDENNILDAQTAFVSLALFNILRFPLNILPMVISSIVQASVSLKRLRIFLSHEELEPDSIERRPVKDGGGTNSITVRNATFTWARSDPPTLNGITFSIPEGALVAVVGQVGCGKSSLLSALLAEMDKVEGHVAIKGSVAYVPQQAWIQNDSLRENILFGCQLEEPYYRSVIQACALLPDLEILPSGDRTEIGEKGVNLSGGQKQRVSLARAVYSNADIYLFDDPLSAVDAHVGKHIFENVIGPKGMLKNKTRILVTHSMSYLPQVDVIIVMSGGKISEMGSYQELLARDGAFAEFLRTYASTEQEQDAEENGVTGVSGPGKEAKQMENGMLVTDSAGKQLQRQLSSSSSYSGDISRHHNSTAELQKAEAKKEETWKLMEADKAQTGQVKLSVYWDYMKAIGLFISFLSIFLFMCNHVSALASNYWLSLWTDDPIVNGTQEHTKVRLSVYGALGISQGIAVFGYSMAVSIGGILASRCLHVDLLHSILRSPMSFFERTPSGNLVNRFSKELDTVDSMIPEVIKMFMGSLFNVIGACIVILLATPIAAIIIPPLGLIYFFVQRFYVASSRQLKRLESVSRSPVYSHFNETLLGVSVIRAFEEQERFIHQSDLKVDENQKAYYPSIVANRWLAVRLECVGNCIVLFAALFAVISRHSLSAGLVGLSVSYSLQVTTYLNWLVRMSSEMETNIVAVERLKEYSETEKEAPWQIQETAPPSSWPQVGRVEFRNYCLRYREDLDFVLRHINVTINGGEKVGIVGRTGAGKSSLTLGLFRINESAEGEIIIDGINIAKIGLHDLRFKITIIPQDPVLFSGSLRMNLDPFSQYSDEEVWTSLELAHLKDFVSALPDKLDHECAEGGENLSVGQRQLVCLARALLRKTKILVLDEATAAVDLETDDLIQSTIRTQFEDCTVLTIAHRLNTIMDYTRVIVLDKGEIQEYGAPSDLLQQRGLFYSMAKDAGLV
Method: (§1) HL60/ADR cells (human leukemia cells grown in adriamycin and overexpressing MRP), revertant HL60 cells, and parental HL60 cells, respectively, were harvested by centrifugation after cultivation in cell culture and plasma membrane vesicles were prepared according to standard methods. Briefly, the cells were lysed by incubation in hypotonic buffer (0.5 mM sodium phosphate (pH 7.0), 0.1 mM EDTA supplemented with protease inhibitors) for 1.5 hours, followed by homogenization in a homogenizer. After centrifugation of the homogenate at 12,000×g(4° C., 10 minutes), the supernatant was centrifuged at 100,000×g at 4° C. for 45 minutes. […] After centrifugation at 280,000×g at 4° C. for 2 hours, the interphase was collected, washed by centrifugation in incubation buffer (100,000×g) and passed 20 times through a 27-gauge needle.
Membrane vesicles (50 μg of protein) were incubated in the presence of 4 mM ATP, 10 mM MgCl2, 10 mM of creatine phosphate, and the labeled substrate in an incubation buffer containing 250 mM sucrose and 10 mM Tris-HCl, pH 7.4. The final volume was 110 μl. Aliquots of 20 μl were taken at predetermined times and diluted in 1 ml of ice-cold incubation buffer. The dilute samples were filtered immediately through a nitrocellulose membrane (0.2 μm pore size), presoaked in incubation buffer using a rapid filtration device and rinsed twice with 5 ml incubation buffer. The filters were immersed in liquid and measured in a liquid scintillation counter. ATP was replaced by an equal concentration of 5′-AMP in a control experiment. All rates of the ATP-dependent transport were obtained by subtracting the values obtained in the presence of 5′-AMP from those measured in the presence of ATP.

[2] = tested on: HL60/S cells; experiment: Cytotoxicity of oncolytics in sensitive HL60/S cells; assay type: cell-based; details: Homo sapiens, HL-60
Text: (§2) See Marquardt, D., McCrone, S., and Center M. S., Cancer Res., 50: 1426, (1990). The mechanism(s) utilized by P190 to confer resistance to Adriamycin is not well understood but may involve the intracellular redistribution of Adriamycin away from the nucleus. See Marquardt, D. and Center, M. S., supra. Adriamycin is an inhibitor of topoisomerase II (Beck, W. T., Bull. Cancer, 77: 1131, (1990), which is an enzyme involved in DNA replication. Redistribution of Adriamycin away from the nucleus would therefore be an important component in cellular resistance to this drug. The studies published to date on P190 have utilized cell lines selected in vitro for resistance to Adriamycin (McGrath, T., Latoud, C., Arnold, S. T., Safa, A. R., Felsted, R. S., and Center, M. S., supra; Marquardt, D. and Center, M. S., supra; and Marquardt, D., McCrone, S., and Center M. S. Cancer Res., supra. The association of MRP (P190) with drug resistance was made by sodium dodecyl sulfate polyacrylamide gel electrophoresis (SDS-PAGE) of radioactive extracts prepared from Adriamycin-resistant HL60/Adr human leukemia cells labeled with 8-azido-alpha[^32P]ATP. See McGrath, T., Latoud, C., Arnold, S. T., Safa, A. R., Felsted, R. S., and Center, M. S., supra. The drug-resistance phenotype conferred by P190 is not limited to the anthracyclines. Epipodophyllotoxin resistance is linked to P190 expression. […]

[3] = tested on: HL60/ADR cells; experiment: Cytotoxicity of oncolytics in doxorubicin-resistant HL60/Adr cells; assay type: cell-based; details: Homo sapiens
Text: as §2

[4] = biological target: T1, MRP; experiment: ATP-dependent transport of [3H]etoposide glucuronide / [3H]etoposide into membrane vesicles from MRP-overexpressing cells; details: direct transport measurement in membrane vesicles
Text: FIG. 5, Panel A illustrates the ATP-dependent transport of [^3H]etoposide glucuronide into membrane vesicles from MRP-overexpressing cells. Panel B provides a comparison of MRP-mediated ATP-dependent transport of [^3H]etoposide glucuronide and [^3H]etoposide into membrane vesicles from MRP-overexpressing cells.

[5] = tested on: membrane vesicles of parental and revertant HL60 cells; experiment: ATP-dependent transport into membrane vesicles of parental and revertant HL60 cells (low MRP expression); assay type: biochemical, human; details: substrate 5 μM
Method: as §1
Membrane vesicles (50 μg of protein) were incubated in the presence of 4 mM ATP, 10 mM MgCl2, 10 mM of creatine phosphate, and the labeled substrate in an incubation buffer containing 250 mM sucrose and 10 mM Tris-HCl, pH 7.4. The final volume was 110 μl. […] The filters were immersed in liquid and measured in a liquid scintillation counter. […] All rates of the ATP-dependent transport were obtained by subtracting the values obtained in the presence of 5′-AMP from those measured in the presence of ATP.

CCCCC/C=C\C\C=C/C=C/C=C/[C@@H](SC[C@H](N)C(=O)O)[C@@H](O)CCCC(=O)O [LTE4]
substrate for the MRP protein [1]: substrates

COc1cccc2c1C(=O)c1c(O)c3c(c(O)c1C2=O)C[C@@](O)(C(=O)CO)C[C@@H]3O[C@H]1C[C@H](N)[C@H](O)[C@H](C)O1 [Adriamycin, Doxorubicin]
IC50 [2]: 0.011 µg/mL (≈ 0.0202 µM)
IC50 ([3]; HL60/ADR): 2.2 µg/mL (≈ 4.05 µM)

COc1cc([C@@H]2c3cc4c(cc3[C@@H](O[C@@H]3O[C@@H]5CO[C@@H](C)O[C@H]5[C@H](O)[C@H]3O)[C@H]3COC(=O)[C@H]23)OCO4)cc(OC)c1O [Etoposide]
IC50 [2]: 0.39 µg/mL (≈ 0.663 µM)
IC50 ([3]; HL60/Adr cells (express P190), read-out: IC50): > 10 µg/mL
substrate for MRP [4]: not a substrate for MRP

N[C@@H](CCC(=O)N[C@@H](CSc1ccc([N+](=O)[O-])cc1[N+](=O)[O-])C(=O)NCC(=O)O)C(=O)O [S-(2,4-dinitrophenyl-[^3H]glutathione, S-(2,4-dinitrophenyl)-[^3H]glutathione]
transport rate compared with HL60/ADR membranes [5]: 10 times less
rate of ATP-dependent transport ([1]; substrate 5 μM, HL60/ADR membranes): 50+4 pmol×mg protein^−1×min^−1

COc1cc([C@@H]2c3cc4c(cc3[C@@H](O[C@@H]3O[C@@H]5CO[C@@H](C)O[C@H]5[C@H](O)[C@H]3O)[C@H]3COC(=O)[C@H]23)OCO4)cc(OC)c1O[C@@H]1O[C@H](C(=O)O)[C@@H](O)[C@H](O)[C@H]1O [etoposide glucuronide]
substrate for MRP [4]: mediated by MRP

CCCCC/C=C\C\C=C/C=C/C=C/[C@@H](Sc1ccc(C(=O)O)cc1)[C@@H](O)CCCC(=O)O [BAY u9773]
type of inhibition of ATP-dependent LTC4 transport ([1]; double-reciprocal (Lineweaver and Burk) plot): competitive inhibition
pKi ([1]; inhibition of ATP-dependent transport of LTC4, vesicles of MRP-overexpressing cells, 37° C., 2 minutes, read-out: inhibition constant (Ki)): 6.15

CCCCC/C=C\C\C=C/C=C/C=C/[C@@H](SC[C@H](N)C(=O)NCC(=O)O)[C@@H](O)CCCC(=O)O [LTD4]
substrate for the MRP protein [1]: substrates
